Results: patent publication US6509361B1, “1,5-Diaryl substituted pyrazoles as p38 kinase inhibitors” (Pharmacia Corporation, priority 2001, dated 2003)

Tests used:
human p38 kinase alpha = molecular target: T1, human p38 kinase alpha (Homo sapiens, UniProt Q16539); assay: p38 Kinase Assay (in vitro; PHAS-I/32P-ATP format or EGFRP/33P-ATP format); type: biochemical; conditions: activated human p38 kinase alpha, 50 μM unlabeled ATP; table does not say which of the two assay formats
T1 construct: The coding region of the human p38a cDNA was obtained by PCR-amplification from RNA isolated from the human monocyte cell line THP.1; GST (N); made in house; host or cells: E. coli DH10B
T1 sequence (Q16539 whole entry): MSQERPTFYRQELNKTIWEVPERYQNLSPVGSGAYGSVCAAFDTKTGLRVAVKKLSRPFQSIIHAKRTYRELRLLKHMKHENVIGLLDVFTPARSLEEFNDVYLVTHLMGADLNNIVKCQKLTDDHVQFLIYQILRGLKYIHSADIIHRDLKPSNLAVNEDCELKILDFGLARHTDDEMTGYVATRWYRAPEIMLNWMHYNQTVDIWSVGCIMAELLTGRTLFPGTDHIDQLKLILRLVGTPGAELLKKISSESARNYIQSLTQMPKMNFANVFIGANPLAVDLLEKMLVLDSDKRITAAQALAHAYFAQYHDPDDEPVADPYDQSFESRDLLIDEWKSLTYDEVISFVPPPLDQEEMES
Procedure: The coding region of the human p38a cDNA was obtained by PCR-amplification from RNA isolated from the human monocyte cell line THP.1. First strand cDNA was synthesized from total RNA as follows: 2 μg of RNA was annealed to 100 ng of random hexamer primers in a 10 μl reaction by heating to 70° C. for 10 minutes followed by 2 minutes on ice. cDNA was then synthesized by adding 1 μl of RNAsin (Promega, Madison Wis.), 2 μl of 50 mM dNTP's, 4 μl of 5×buffer, 2 μl of 100 mM DTT and 1 μl (200 U) of Superscript II™ […] reverse transcriptase. Random primer, dNTP's and Superscript™ reagents were all purchased from Life-Technologies, Gaithersburg, Mass. The reaction was incubated at 42° C. for 1 hour. Amplification of p38 cDNA was performed by aliquoting 5 μl of the reverse transcriptase reaction into a 100 μl PCR reaction containing the following: 80 μl dH2O, 2 μl 50 mM dNTP's, 1 μl each of forward and reverse primers (50 pmol/μl), 10 μl of 10× buffer and 1 μl Expand™ polymerase (Boehringer Mannheim). The PCR primers incorporated Bam HI sites onto the 5′ and 3′ end of the amplified fragment, and were purchased from Genosys. The forward and reverse primers were 5′-[…]-3′ and 5′[…]-3′, respectively. The PCR amplification was carried out in a DNA Thermal Cycler (Perkin Elmer) by repeating 30 cycles of 94° C. for 1 minute, 60° C. for 1 minute and 68° C. for 2 minutes. After amplification, excess primers and unincorporated dNTP's were removed from the amplified fragment with a Wizard™ PCR prep (Promega) and digested with Bam HI (New England Biolabs). The Bam HI digested fragment was ligated into BamHI digested pGEX 2T plasmid DNA (PharmaciaBiotech) using T-4 DNA ligase (New England Biolabs) as described by T. Maniatis, Molecular Cloning: A Laboratory Manual, 2nd ed. (1989). The ligation reaction was transformed into chemically competent E. coli DH10B cells purchased from Life-Technologies following the manufacturer's instructions. Plasmid DNA was isolated from the resulting bacterial colonies using a Promega Wizard™ miniprep kit. Plasmids containing the appropriate Bam HI fragment were sequenced in a DNA Thermal Cycler (Perkin Elmer) with Prism™ (Applied Biosystems Inc.). cDNA clones were identified that coded for both human p38a isoforms (Lee et al. Nature 372, 739). One of the clones which contained the cDNA for p38a-2 (CSBP-2) inserted in the cloning site of pGEX 2T, 3′ of the GST coding region was designated pMON 35802. The sequence obtained for this clone is an exact match of the cDNA clone reported by Lee et al. This expression plasmid allows for the production of a GST-p38a fusion protein.
Expression of Human p38a:
GST/p38a fusion protein was expressed from the plasmid pMON 35802 in E. coli, stain DH10B (Life Technologies, Gibco-BRL). Overnight cultures were grown in Luria Broth (LB) containing […] ampicillin. The next day, 500 ml of fresh LB was inoculated with 10 ml of overnight culture, and grown in a 2 liter flask at 37° C. with constant shaking until the culture reached an absorbance of 0.8 at 600 nm. Expression of the fusion protein was induced by addition of isopropyl b-D-thiogalactosidse (IPTG) to a final concentration of 0.05 mM. The cultures were shaken for three hours at room temperature, and the cells were harvested by centrifugation. The cell pellets were stored frozen until protein purification.
Purification of p38 Kinase-α:
All chemicals were from Sigma Chemical Co. unless noted. Twenty grams of E. coli cell pellet collected from five 1 L shake flask fermentations was resuspended in a volume of PBS (140 mM NaCl, 2.7 mM KCl, 10 mM Na2HPO4, 1.8 mM KH2PO4, pH 7.3) up to 200 ml. The cell suspension was adjusted to 5 mM DTT with 2 M DTT and then split equally into five 50 ml Falcon conical tubes. The cells were sonnicated (Ultrasonics model W375) with a 1 cm probe for 3×1 minutes (pulsed) on ice. […]

[1] = system: TNF-α released by U937 cells (human histiocytic lymphoma cell line); assay: U937 Cell Assay: LPS stimulation of TNF production by U937 cells, ELISA; type: cell-based; conditions: U-937, differentiated U937 cells, LPS 100 ng/ml, 4 hour incubation
Procedure: Maintenance and Differentiation of the U937 Human Histiocytic Lymphoma Cell Line:
U937 cells (ATCC) were propagated in RPMI 1640 containing 10% fetal bovine serum, 100 IU/ml penicillin, 100 μg/ml streptomycin, and 2 mM glutamine (Gibco). Fifty million cells in 100 ml media were induced to terminal monocytic differentiation by 24 hour incubation with 20 ng/ml phorbol 12-myristate 13-acetate (Sigma). The cells were washed by centrifugation (200×g for 5 min) and resuspended in 100 ml fresh medium. After 24-48 hours, the cells were harvested, centrifuged, and resuspended in culture medium at 2 million cells/ml.
LPS Stimulation of TNF Production by U937 Cells:
U937 cells (0.1 ml, 2 million/ml) were incubated with 0.1 ml compound (0.004-50 μM, final concentration) for 1 hour in 96 well microtiter plates. Compounds were prepared as 10 mM stock solutions in DMSO and diluted in culture medium to yield a final DMSO concentration of 0.1% in the cell assay. LPS (E. coli, 100 ng/ml final concentration) was then added at a volume of 0.02 ml. After 4 hour incubation at 37° C., the amount of TNF-α released in the culture medium was quantitated by ELISA. Inhibitory potency is expressed as IC50 (μM).

[2] = system: TNF-a (LPS-stimulated human peripheral blood mononuclear cells); assay: TNF Cell Assay: LPS stimulation of human PBM cells, TNF-a by ELISA; type: cell-based; conditions: PBMC, LPS 20 ng/ml, overnight 37° C., compound 10-0.41 μM
Procedure: Method of Isolation of Human Peripheral Blood Mononuclear Cells:
Human whole blood was collected in Vacutainer tubes containing EDTA as an anticoagulant. A blood sample (7 ml) was carefully layered over 5 ml PMN Cell Isolation Medium (Robbins Scientific) in a 15 ml round bottom centrifuge tube. The sample was centrifuged at 450-500×g for 30-35 minutes in a swing out rotor at room temperature. After centrifugation, the top band of cells were removed and washed 3 times with PBS w/o calcium or magnesium. The cells were centrifuged at 400×g for 10 minutes at room temperature. The cells were resuspended in Macrophage Serum Free Medium (Gibco BRL) at a concentration of 2 million cells/ml.
LPS Stimulation of Human PBMS:
PBM cells (0.1 ml, 2 million/ml) were co-incubated with 0.1 ml compound (10-0.41 μM, final concentration) for 1 hour in flat bottom 96 well microtiter plates. Compounds were dissolved in DMSO initially and diluted in TCM for a final concentration of 0.1% DMSO. LPS (Calbiochem, 20 ng/ml, final concentration) was then added at a volume of 0.010 ml. Cultures were incubated overnight at 37° C. Supernatants were then removed and tested by ELISA for TNF-a and IL1-b. Viability was analyzed using MTS. After 0.1 ml supernatant was collected, 0.020 ml MTS was added to remaining 0.1 ml cells. The cells were incubated at 37° C. for 2-4 hours, then the O.D. was measured at […].

Which IC50 (human p38 kinase alpha) does the source give for `O=C(O)c1cnn(-c2ccc(F)cc2)c1-c1ccncc1` [Example 43] here?
Its IC50 is 65.1 µM.

What about the IC50 [1] of the same compound?
Its IC50 is at least 10 µM.

With `Cc1ccc(-n2nc(C)cc2-c2ccnc(NCc3cccnc3)c2)cc1` [Example 6] as the compound, how does the IC50 (human p38 kinase alpha) read?
Its IC50 is 0.4 µM.

And the IC50 [2]?
Its IC50 is 1.5 µM.

What about the melting point of the same compound?
Its melting point is 108.94 °C.

Which results are given for `Cc1ccc(-n2nc(C)cc2-c2ccnc(NCc3ccccc3)c2)cc1` [Example 7]?
IC50 (human p38 kinase alpha): 0.01 µM; IC50 [2]: 1.1 µM; melting point: 102.1 °C

What does the source list for `Cc1cccc(-n2nc(C)cc2-c2ccnc(C(N)=O)c2)c1` [Example 33, {4-[1-(3-Methylphenyl)-3-methyl-1H-pyrazol-5-yl]}-2-pyridine-2-carboxamide]?
IC50 [2]: 5 µM; melting point: 193 to 195 °C

Which IC50 (human p38 kinase alpha) does the source give for `Cc1cnn(-c2cccc(F)c2)c1-c1ccncc1` [Example 2] here?
Its IC50 is 37.2 µM.

And the IC50 [2]?
Its IC50 is 4 µM.

What about the melting point of the same compound?
Its melting point is 131.11 °C.

Which results are given for `Fc1ccc(-n2ncc(N3CCNCC3)c2-c2ccncc2)cc1` [Example 18]?
IC50 (human p38 kinase alpha): 35.7 µM; IC50 [2]: > 10 µM; IC50 [1]: ≥ 10 µM

For `Cc1ccc(-n2nc(C)cc2-c2ccnc(NCCO)c2)cc1` [Example 5], which IC50 (human p38 kinase alpha) is on record?
Its IC50 is 1.4 µM.

And the IC50 [2]?
Its IC50 is 0.2 µM.

What about the melting point of the same compound?
Its melting point is 148.2 °C.

With `Cc1cc(-c2ccnc(N=[N+]=[N-])c2)n(-c2cccc(F)c2)n1` [Example 37, {4-[1-(3-Fluorophenyl)-3-methyl-1H-pyrazol-5-yl]}pyridine-2-azide] as the compound, how does the IC50 (human p38 kinase alpha) read?
The IC50 was 85 µM.

What about the IC50 [2] of the same compound?
Its IC50 is 2.2 µM.

What about the melting point of the same compound?
The melting point was 134 to 135 °C.

For `Cc1cc(-c2ccnc(NCc3cccnc3)c2)n(-c2cccc(F)c2)n1` [Example 38, 2-(3-Pyridylmethylamino)-4-[1-(3-fluorophenyl)-3-methyl-1H-pyrazol-5-yl]pyridine], which IC50 (human p38 kinase alpha) is on record?
The IC50 was 0.219 µM.

What about the IC50 [2] of the same compound?
Its IC50 is 0.6 µM.

What does the source list for `O=C(c1cnn(-c2ccc(F)cc2)c1-c1ccncc1)N1CCNCC1` [Example 17]?
IC50 (human p38 kinase alpha): 65.1 µM; IC50 [2]: > 10 µM; IC50 [1]: ≥ 10 µM

For `Cc1ccc(-n2nc(C)cc2-c2cccc(N)c2)cc1` [Example 14], which IC50 (human p38 kinase alpha) is on record?
Its IC50 is over 100 µM.

What about the IC50 [2] of the same compound?
Its IC50 is over 10 µM.

What about the melting point of the same compound?
Its melting point is 94.38 °C.

Which IC50 (human p38 kinase alpha) does the source give for `Cc1cc(-c2ccnc(Cl)c2)n(-c2cccc(F)c2)n1` [Example 46, 2-Chloro-4-[1-(3-fluorophenyl)-3-methyl-1H-pyrazol-5-yl]pyridine] here?
The IC50 was 67.7 µM.

What about the IC50 [1] of the same compound?
The IC50 was over 10 µM.

With `COC(=O)c1cnn(-c2ccc(F)cc2)c1-c1ccncc1` [Example 42, Methyl 1-(4-Fluorophenyl)-5-(4-pyridinyl)-1H-pyrazole-4-carboxylate] as the compound, how does the IC50 (human p38 kinase alpha) read?
Its IC50 is 2.68 µM.

And the IC50 [1]?
Its IC50 is at least 10 µM.

Which results are given for `Cc1cccc(-n2nc(C)cc2-c2ccnc(N)c2)c1` [Example 21, 2-Amino-4-[1-(3-methylphenyl)-3-methyl-1H-pyrazol-5-yl]pyridine]?
IC50 (human p38 kinase alpha): 0.35 µM; IC50 [2]: 0.5 µM; melting point: 124 to 125 °C

What does the source list for `Fc1ccc(-n2nccc2-c2ccnc(NCCc3ccccc3)c2)cc1` [Example 30, 2-(Phenylethylamino)-4-[1-(4-fluorophenyl)-1H-pyrazol-5-yl]pyridine]?
IC50 (human p38 kinase alpha): 0.024 µM; IC50 [2]: 10 µM

Which results are given for `Cc1cccc(-n2nc(C)cc2-c2ccnc(N(C)CCc3ccccc3)c2)c1` [Example 25, 2-(N-Methylphenylethylamino)-4-[1-(3-methylphenyl)-3-methyl-1H-pyrazol-5-yl]pyridine]?
IC50 (human p38 kinase alpha): 2.24 µM; IC50 [2]: 0.8 µM

Which melting point does the source give for `Cc1cc(-c2ccnc(NCc3ccccc3)c2)n(-c2cccc(F)c2)n1` [Example 20, 2-(Benzylamino)-4-[1-(3-fluorophenyl)-3-methyl-1H-pyrazol-5-yl]pyridine] here?
The melting point was 94 to 96 °C.

For `CCCc1c[nH][n+](-c2cccc(F)c2)c1-c1ccncc1` [Example 39], which melting point is on record?
Its melting point is 93 to 94 °C.

With `Cc1ccc(-n2nc(C)cc2-c2ccnc(Cl)c2)cc1` [Example 41, 2-chloro-4-[3-methyl-1-(4-methylphenyl)-1H-pyrazol-5-yl]pyridine] as the compound, how does the IC50 (human p38 kinase alpha) read?
Its IC50 is 14 µM.

What about the IC50 [2] of the same compound?
Its IC50 is 2.9 µM.

And the melting point?
Its melting point is 100.07 °C.

With `CCc1c[nH][n+](-c2cccc(F)c2)c1-c1ccncc1` [Example 40] as the compound, how does the melting point read?
The melting point was 109 to 110 °C.

Which IC50 (human p38 kinase alpha) does the source give for `Cc1cccc(-n2nc(C)cc2-c2ccnc(NCc3ccccc3)c2)c1` [Example 19, 2-(Benzylamino)-4-[1-(3-methylphenyl)-3-methyl-1H-pyrazol-5-yl]pyridine] here?
The IC50 was 0.002 µM.

And the IC50 [2]?
The IC50 was 0.1 µM.

Which IC50 (human p38 kinase alpha) does the source give for `Cc1cc(-c2ccnc(C(N)=O)c2)n(-c2ccc(F)cc2)n1` [Example 34, {4-[1-(4-Fluorophenyl)-3-methyl-1H-pyrazol-5-yl]}pyridine-2-carboxamide] here?
The IC50 was 44 µM.

What about the melting point of the same compound?
The melting point was 168 to 170 °C.

What does the source list for `Cc1ccc(-n2nc(C)cc2-c2ccnc(N(C)C)c2)cc1` [Example 10]?
IC50 (human p38 kinase alpha): > 100 µM; IC50 [2]: > 10 µM

Which results are given for `Cc1cccc(-n2nc(C)cc2-c2ccnc(S(C)(=O)=O)c2)c1` [Example 36, 2-(Methylsulfonyl)-4-[1-(3-methylphenyl)-3-methyl-1H-pyrazol-5-yl]pyridine]?
IC50 (human p38 kinase alpha): 29.9 µM; IC50 [2]: > 10 µM; melting point: 140 to 142 °C

What does the source list for `Cc1cnn(Cc2ccccc2)c1-c1ccncc1` [Example 4]?
IC50 (human p38 kinase alpha): > 100 µM; IC50 [2]: > 10 µM
